Measured values reported in patent US12226400B2, “Neuroprotective disruption of Kv2.1/syntaxin interaction by small molecules” (UNIVERSITY OF PITTSBURGH-OF THE COMMONWEALTH SYSTEM OF …, priority 2018, dated 2025).

Legend:
[1] = system: L5B corticocollicular neurons; test: Slice electrophysiology, intrinsic properties of L5B corticocollicular neurons; format: cell-based, mouse; conditions: 10 min incubation in 10 μM cpd5
Experimental: Stereotaxic injections for electrophysiology. Male or female ICR mice P21-30 (Jackson Laboratory) were anesthetized with 3% isoflurane (1.5% maintenance) and placed on the stereotaxic frame (Kopf). Core body temperature was maintained at ˜37° C. with a heating pad and eyes were protected with ophthalmic ointment. Lidocaine (1%) was injected under the scalp and an incision was made into the skin at the midline to expose the skull. […] A volume of ˜0.12 μl fluorospheres was pressure injected (25 psi, 10 ms duration) from capillary pipettes (Drummond Scientific) with a Picospritzer (Parker-Hannifin). After injection, the pipette was held in the brain for 2 min before slowly withdrawing. The scalp of the mouse was closed with cyanoacrylate adhesive. Mice were injected with the non-steroidal anti-inflammatory drug carprofen at 5 mg/kg (Henry Schein Animal Health) for 24 hours prior to and 48 hours after surgery. Mice were monitored for signs of postoperative stress and pain.
Slice electrophysiology. Slice electrophysiology experiments were performed in mice at least 2 days after fluorospheres injections. Following anesthesia with isoflurane, mice were immediately decapitated. Brains were rapidly removed and coronal slices (300 μm) containing the auditory cortex were prepared in a cutting solution at 1° C. using a Vibratome (VT1200 S; Leica). For evoked EPSC recordings, the cutting solution, pH 7.4, ˜300 mOsm, contained the following (in mM): 2.5 KCl, 1.25 NaH2PO4, 25 NaHCO3, 0.5 CaCl2, 7 MgCl2, 7 Glucose, 205 sucrose, 1.3 ascorbic acid, and 3 sodium pyruvate (bubbled with 95% O2/5% CO2). For evaluation of corticocollicular neuron electrical properties, the cutting solution, pH ˜7.4, contained the following (in mM): 135 NMDG, 1 KCl, 1.2 KH2PO4, 1.5 MgCl2, 1.5 CaCl2, 20 NaHCO3, 10 D-Glucose. The slices were then transferred and incubated at 34° C. for 30 min (bubbled with 95% O2/5% CO2) prior to recording. The incubating and recording solution contained the following (in mM): 125 NaCl, 2.5 KCl, 1.25 NaH2PO4, 25 NaHCO3, 2 CaCl2, 1 MgCl2, 10 D-Glucose, 1.3 ascorbic acid, and 3 sodium pyruvate (bubbled with 95% O2/5% CO2). Slices were stored at room temperature until the time of recording. The flow rate of the ACSF was ˜1.5 ml/min, and its temperature was maintained at 34° C. using an in-line heating system (Warner). Both slice electrophysiology experiments were carried out using MultiClamp-700B amplifier equipped with Digidata-1440A A/D converter and Clampex (Molecular Devices). Data were sampled at 10 kHz and Bessel filtered at 4 kHz. Pipette capacitance was compensated and series resistance for recordings was lower than 15 MΩ and measured throughout the experiments. Recordings were excluded from further analysis if the series resistance changed by more than 15% compared to the baseline period.
All data for intrinsic properties were acquired and analyzed within the Ephus software package. Series resistance was determined in voltage-clamp mode (command potential set at −70 mV) by giving a −5 mV voltage step. […] The difference between baseline and steady-state hyperpolarized current (ΔI) was used to calculate Rinput using the following formula: Rinput=−5 mV/ΔI−Rseries. The average resting membrane potential (Vm) was calculated by holding the neuron in voltage-follower mode (current clamp, at I=0) ˜2 minutes after breaking in and averaging the membrane potential over the next 30 sec. Subthreshold and suprathreshold membrane responses in current clamp were elicited by injecting −200 to +400 pA in 50 pA increments (baseline Vm was maintained at −70 mV, by injecting the required current, if necessary). Sag was measured during the −200 pA current injection, using the formula, SAG=(Vmin−Vsteady-state)/Vsteady-state. The first resulting action potential (AP) at rheobase was analyzed for AP width. AP width was calculated as the full-width at the half-maximum amplitude of the AP. […]

[2] = system: delayed rectifier K+ currents (Kv2.1-mediated) in rat cortical culture neurons; test: Whole-cell patch clamp of delayed rectifier K+ currents after TBOA; format: cell-based; conditions: Cpd5 incubation alone, 5 hours total
Experimental: Cortical culture electrophysiology. Whole-cell patch-clamp experiments were performed on rat cortical culture neurons prepared as described in the LDH toxicity experiments. The TBOA treatment was reduced in severity in this experiment to limit extensive cell injury that would prevent adequate patch clamp recordings. Prior to recording, coverslips were treated with 50 μM TBOA in MHB for 2 hr. The treatment was terminated with 3×MHB washes and transferring the coverslip to a separate well containing MHB to rest for 2 hr prior to electrophysiology recordings and to allow for the expression of enhanced currents. For cpd5-treated groups, cells were pre-incubated for 1 hr in 10 μM cpd5 prior to the addition of TBOA. Cpd5 was also present during the TBOA and the post-TBOA incubation phases.
Recordings were carried out using 1.5 mm diameter borosilicate glass electrodes (Sutter Instruments) made from a horizontal pipette puller at 5-7 MΩ. The internal solution contains (in mM): 100 K-gluconate, 10 KCl, 1 MgCl2, 1 CaCl2, 10 HEPES, 11 EGTA, 2.2 ATP, 0.33 GTP. The internal solution was further adjusted to pH 7.2 and to 280 mOsm with the addition of sucrose. The pH adjusted (7.2) external solution was composed of the following (in mM): 115 NaCl, 2.5 KCl, 2.0 MgCl2, 10 HEPES, 10 D-glucose, and 0.25 μM TTX. […]

For `COc1ccc(CNC(=O)Nc2cccc(-c3nc4ccccc4s3)c2)cc1OC` [cpd5, 3-[3-(1,3-benzothiazol-2-yl)phenyl]-1-[(3,4-dimethoxyphenyl)methyl]urea], the action potential threshold [1] was “no significant effect”, the action potential width [1] was “no significant effect” and the firing rate [1] was “no significant effect”. For the same compound, the input resistance [1] was “lack of significant effect”, the resting membrane potential [1] was “lack of significant effect” and the “sag ratio (V2/V1)” value [1] was “lack of significant effect”. For the same compound, the “basal K+ current densities” value [2] was “no significant effects”.
